Target: T1, JAK2 (Homo sapiens, UniProt O60674)
T1 construct: purchased Thermo Fisher Scientific (Life Technologies) SelectScreen
Test: SelectScreen Z'LYTE
Type: biochemical
In short: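 Percent values come from Thermo SelectScreen profiling of NU5455, combining activity and binding assays. CSF1R was run in Z'LYTE format at Km app ATP, and CAMK1 in Adapta format with ATP listed at 10.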

T1 sequence (O60674 whole entry): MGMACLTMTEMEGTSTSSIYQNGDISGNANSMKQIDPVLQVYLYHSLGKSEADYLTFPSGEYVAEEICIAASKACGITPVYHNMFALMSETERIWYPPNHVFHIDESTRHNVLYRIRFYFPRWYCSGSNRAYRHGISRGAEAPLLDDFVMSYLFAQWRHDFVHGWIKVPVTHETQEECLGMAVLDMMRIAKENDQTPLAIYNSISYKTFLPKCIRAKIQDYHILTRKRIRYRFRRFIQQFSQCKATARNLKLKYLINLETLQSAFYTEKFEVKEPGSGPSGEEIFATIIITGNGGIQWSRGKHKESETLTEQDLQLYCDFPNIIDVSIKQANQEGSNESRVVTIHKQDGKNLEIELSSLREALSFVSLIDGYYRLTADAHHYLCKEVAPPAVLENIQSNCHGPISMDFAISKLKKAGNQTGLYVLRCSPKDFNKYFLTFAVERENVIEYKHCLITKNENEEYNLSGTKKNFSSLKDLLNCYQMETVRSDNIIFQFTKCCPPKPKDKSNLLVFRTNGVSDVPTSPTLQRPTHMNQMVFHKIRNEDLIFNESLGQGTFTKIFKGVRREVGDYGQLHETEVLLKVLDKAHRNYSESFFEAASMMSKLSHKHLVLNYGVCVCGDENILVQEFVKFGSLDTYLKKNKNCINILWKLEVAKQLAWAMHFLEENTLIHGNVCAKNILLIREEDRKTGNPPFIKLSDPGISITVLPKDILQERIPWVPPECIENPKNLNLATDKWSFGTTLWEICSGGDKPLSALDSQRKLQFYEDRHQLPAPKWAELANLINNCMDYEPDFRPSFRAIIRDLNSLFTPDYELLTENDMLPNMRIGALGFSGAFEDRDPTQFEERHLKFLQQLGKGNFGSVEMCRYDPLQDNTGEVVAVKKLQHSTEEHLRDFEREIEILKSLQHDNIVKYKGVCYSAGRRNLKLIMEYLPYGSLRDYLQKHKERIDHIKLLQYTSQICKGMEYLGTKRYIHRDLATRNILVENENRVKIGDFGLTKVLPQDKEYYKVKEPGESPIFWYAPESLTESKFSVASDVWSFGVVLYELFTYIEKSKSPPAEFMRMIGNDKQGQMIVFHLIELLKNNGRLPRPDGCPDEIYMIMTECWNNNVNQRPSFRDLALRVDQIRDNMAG

## CN(C(=O)CN1CCOCC1)c1ccc2sc3c(-c4cccc5c(=O)cc(N6CC7CCC(C6)O7)oc45)cccc3c2c1 [NU5455]
  inhibition at 1 µM: 2.5%

— article PMC6934184, “Selective DNA-PKcs inhibition extends the therapeutic index of localized radiotherapy and chemotherapy” (The Journal of Clinical Investigation, 2019)
